Like-named read-outs stand apart in the source and are kept apart here.
Experiment: Single-dose pharmacokinetics in dogs (plasma, UHPLC/MS/MS)
Assay type: in vivo, Beagle dogs
Conditions: for MRT last: read-out: MRT0-t; for MRT inf: read-out: MRT0-∞
Source text: Sixty healthy adult Sprague Dawley rats (180-220 g, half male and female) were purchased from the Guangdong Medical Laboratory Animal Center (Guangzhou, Guangdong, China). Thirty Beagle dogs (10-14 kg, half male and female) were purchased from the […] Laboratory Animal Science & Technology Co., Ltd. (Gaoyao, Guangdong, China). All animals were housed under humanized conditions with free access to food and water, and acclimated to the living conditions for at least one week prior to experimentation at the Laboratory Animal Center of the School of Life Sciences, Sun Yat-sen University. Environmental conditions were maintained at 20°C-25°C, 55% ± 15% relative humidity, 12-h light/dark cycles, and 12 air changes per hour. Prior to experimentation, the animals were fasted overnight with water available ad libitum. All animals were healthy based on physical examination and laboratory analyses performed before and after the experiments. At the end of the experiments, the dogs were returned to the Laboratory Animal Center of School of Life Sciences, Sun Yat-sen University. […] All blood samples were transferred into heparin-treated centrifuge tubes and centrifuged for 10 min at 4,000 rpm and 4°C. All human urine samples were mixed and transferred (4 ml) into storage tubes. All biological samples were stored at -80°C. […] The optimal volume and activity in unit volume of enzyme solution [0.2 M acetic acid/water solution: 0.2 M ammonium acetate/water solution, 15:35 (v/v)] were determined through a pretest of the enzyme (rat plasma, 10 μl, 10 U μl^-1; dog plasma, 10 μl, 10 U μl^-1; human plasma, 20 μl, 20 U μl^-1; human urine, 10 μl, 10 U μl^-1). After enzyme incubation, 10 μl of IS solution was added to the plasma and urine samples (2 μg ml^-1 quercetin 3-β-D-glucoside for rat and dog plasma; 583 ng ml^-1 naringin-D4 and 160 ng ml^-1 naringenin-D4 for human plasma; and 9,710 ng ml^-1 naringin-D4 and 6,000 ng ml^-1 naringenin-D4 for human urine). To each fecal sample, 9-fold methanol-normal saline (2:1, v/v) was added, mixed (18,000 rpm, 15 min) by vortexing and centrifuged (10 min, 9,000 rpm, 4°C). Next, 10 μl IS solution (971 ng ml^-1 naringin-D4 and 600 ng ml^-1 naringenin-D4) was added to the supernatants of feces (200 μl) without enzyme incubation. […] The solid material was dissolved with acetonitrile-water (1:1, v/v) and injected into the ultra high-performance liquid chromatography coupled with triple quadrupole mass spectrometry (UHPLC/MS/MS) system as described below. The analysis of nonclinical and clinical samples was performed with a UHPLC/MS/MS system that consisted of a Shimadzu Nexera X2 ultra high-performance liquid chromatography (UHPLC) (Shimadzu Corp., Kyoto, Japan) coupled with an AB Sciex API4000 triple-quadrupole mass spectrometry (MS/MS) system (AB Sciex, Foster City, CA, USA) equipped with an electrospray ionization source and controlled by Analyst (v. 1.6.2) software. […] The injection volume was 10 μl with the flow rate of 0.3 ml min^-1 for plasma, and 0.4 ml min^-1 for urine and feces. The compounds were detected by multiple reaction monitoring in the negative ion electrospray mode. The electrospray source conditions were as follows: ion source gas1 30 psi, ion source gas2 60 psi, curtain gas 20 psi, collisionally activated dissociation (CAD) gas 8 psi, temperature 500°C, and ion spray voltage -4,500 V. Zero air was used for ion source gas1 and ion source gas2 and nitrogen for curtain gas and CAD gas. […] All pharmacokinetic and excretion parameters were expressed as mean ± standard deviation (SD). All mean and SD values were reported to three significant figures. The pharmacokinetic parameters were calculated using the Phoenix WinNonlin software (Version 6.4, Pharsight Corp., Cary, NC, USA) and compared using the Student's t-test (p < 0.05) in SPSS 18.0 (SPSS Inc., Chicago, IL, USA). […]

[1] = both sexes, Beagle, dog, plasma, po, 3.1 mg/kg
[2] = both sexes, Beagle, dog, plasma, po, 12.4 mg/kg
[3] = both sexes, beagle, dog, plasma, iv, 12.4 mg/kg
[4] = both sexes, beagle, dog, plasma, po, 49.6 mg/kg
[5] = female, Beagle, dog, plasma, iv, 12.4 mg/kg
[6] = female, Beagle, dog, plasma, po, 3.1 mg/kg
[7] = female, Beagle, dog, plasma, po, 12.4 mg/kg
[8] = female, Beagle, dog, plasma, po, 49.6 mg/kg
[9] = male, Beagle, dog, plasma, iv, 12.4 mg/kg
[10] = male, Beagle, dog, plasma, po, 3.1 mg/kg
[11] = male, Beagle, dog, plasma, po, 12.4 mg/kg
[12] = male, Beagle, dog, plasma, po, 49.6 mg/kg
[13] = naringin 3.1 mg kg^-1 p.o. single dose, dog
[14] = naringin 12.4 mg kg^-1 p.o. single dose, dog
[15] = naringin 49.6 mg kg^-1 p.o. single dose, dog

O=C1C[C@@H](c2ccc(O)cc2)Oc2cc(O)cc(O)c21 [naringenin, Naringenin]
half-life (both sexes, Beagle, dog, plasma, oral, naringenin in dogs, studies overall): 2.03 ± 0.968 h
lag-time in plasma (dogs, after p.o. naringin): 1.83 ± 0.923 h
time for concentrations to increase to Cmax after the lag-time (dogs, after p.o. naringin): 4.17 ± 1.68 h

C[C@@H]1O[C@@H](O[C@H]2[C@H](Oc3cc(O)c4c(c3)O[C@H](c3ccc(O)cc3)CC4=O)O[C@H](CO)[C@@H](O)[C@@H]2O)[C@H](O)[C@H](O)[C@H]1O [naringin, Naringin]
half-life (both sexes, Beagle, dog, plasma, po): 1.41 ± 0.671 h
AUC(0-inf) [1]: 129 ± 78.2 ng·h/mL
AUC(0-t) [1]: 108 ± 58.8 ng·h/mL
Cmax [1]: 39.9 ± 10.4 ng/mL
Tmax [1]: 1.33 ± 0.258 h
half-life [1]: 1.84 ± 1.46 h
MRT last [1]: 2.5 ± 1.05 h
MRT inf [1]: 3.38 ± 1.88 h
AUC(0-inf) [2]: 135 ± 35.5 ng·h/mL
AUC(0-t) [2]: 124 ± 32.2 ng·h/mL
Cmax [2]: 70.2 ± 16.9 ng/mL
Tmax [2]: 1 ± 0.316 h
half-life [2]: 1.31 ± 0.581 h
MRT last [2]: 1.77 ± 0.371 h
MRT inf [2]: 2.17 ± 0.633 h
Tmax (both sexes, Beagle, dog, plasma, po, dogs, nonclinical p.o. administration studies overall): 1.11 ± 0.344 h
AUC(0-inf) [3]: 2930 ± 403 ng·h/mL
AUC(0-t) [3]: 2920 ± 406 ng·h/mL
Cmax [3]: 5800 ± 946 ng/mL
Tmax [3]: 0.08 h
clearance [3]: 71.8 mL/min/kg
half-life [3]: 1.37 ± 0.347 h
MRT last [3]: 0.703 ± 0.153 h
MRT inf [3]: 0.727 ± 0.143 h
Vd (both sexes, beagle, dog, plasma, iv, 12.4 mg/kg, read-out: Vd): 8.69 ± 3.35 L/kg
AUC(0-inf) [4]: 224 ± 104 ng·h/mL
AUC(0-t) [4]: 211 ± 92.1 ng·h/mL
Cmax [4]: 107 ± 78.2 ng/mL
Tmax [4]: 1 ± 0.447 h
half-life [4]: 1.31 ± 0.293 h
MRT last [4]: 2.46 ± 1.11 h
MRT inf [4]: 2.73 ± 1.02 h
AUC(0-inf) [5]: 3200 ± 337 ng·h/mL
AUC(0-t) [5]: 3190 ± 344 ng·h/mL
Cmax [5]: 5860 ± 1070 ng/mL
Tmax [5]: 0.08 h
half-life [5]: 1.25 ± 0.317 h
AUC(0-inf) [6]: 109 ± 67.7 ng·h/mL
AUC(0-t) [6]: 88.5 ± 40 ng·h/mL
Cmax [6]: 36.8 ± 12.6 ng/mL
Tmax [6]: 1.17 ± 0.289 h
half-life [6]: 1.26 ± 0.633 h
AUC(0-inf) [7]: 132 ± 36.8 ng·h/mL
AUC(0-t) [7]: 115 ± 27.9 ng·h/mL
Cmax [7]: 60.2 ± 10.8 ng/mL
Tmax [7]: 1 ± 0.1 h
half-life [7]: 1.42 ± 0.782 h
AUC(0-inf) [8]: 262 ± 144 ng·h/mL
AUC(0-t) [8]: 240 ± 128 ng·h/mL
Cmax [8]: 157 ± 87.5 ng/mL
Tmax [8]: 1.17 ± 0.289 h
half-life [8]: 1.13 ± 0.312 h
AUC(0-inf) [9]: 2640 ± 255 ng·h/mL
AUC(0-t) [9]: 2640 ± 256 ng·h/mL
Cmax [9]: 5740 ± 1050 ng/mL
Tmax [9]: 0.08 h
half-life [9]: 1.48 ± 0.404 h
AUC(0-inf) [10]: 149 ± 97.4 ng·h/mL
AUC(0-t) [10]: 128 ± 76.6 ng·h/mL
Cmax [10]: 42.9 ± 9.19 ng/mL
Tmax [10]: 1.5 ± 0.231 h
half-life [10]: 2.41 ± 1.98 h
AUC(0-inf) [11]: 137 ± 42.3 ng·h/mL
AUC(0-t) [11]: 132 ± 40 ng·h/mL
Cmax [11]: 80.2 ± 17.2 ng/mL
Tmax [11]: 1 ± 0.5 h
half-life [11]: 1.2 ± 0.443 h
AUC(0-inf) [12]: 185 ± 45.5 ng·h/mL
AUC(0-t) [12]: 181 ± 46.7 ng·h/mL
Cmax [12]: 56.6 ± 6.83 ng/mL
Tmax [12]: 0.833 ± 0.577 h
half-life [12]: 1.5 ± 0.117 h
CL [13]: 520 ± 257 mL/min/kg
Vd [13]: 61.2 ± 23.0 L/kg
CL [14]: 1630 ± 453 mL/min/kg
Vd [14]: 171 ± 59.4 L/kg
CL [15]: 4450 ± 2120 mL/min/kg
Vd [15]: 482 ± 173 L/kg

Reference: article PMC7118210 (Frontiers in Pharmacology, 2020)
